Source: patent US20250145635A1, “COMPOUND CONTAINING BIS(AZANYLYLIDENE) SULFONYL STRUCTURE AND USE THEREOF IN MEDICINE” (SCINNOHUB PHARMACEUTICAL CO., LTD., priority 2021, published 2025)

These compounds were tested against recombinant human PKR enzyme (Homo sapiens (Human), UniProt P30613) (assay: Pyruvate kinase (PKR) activity experiment). Settings: activation of recombinant human PKR enzyme.
recombinant human PKR enzyme, sequence (P30613 whole entry): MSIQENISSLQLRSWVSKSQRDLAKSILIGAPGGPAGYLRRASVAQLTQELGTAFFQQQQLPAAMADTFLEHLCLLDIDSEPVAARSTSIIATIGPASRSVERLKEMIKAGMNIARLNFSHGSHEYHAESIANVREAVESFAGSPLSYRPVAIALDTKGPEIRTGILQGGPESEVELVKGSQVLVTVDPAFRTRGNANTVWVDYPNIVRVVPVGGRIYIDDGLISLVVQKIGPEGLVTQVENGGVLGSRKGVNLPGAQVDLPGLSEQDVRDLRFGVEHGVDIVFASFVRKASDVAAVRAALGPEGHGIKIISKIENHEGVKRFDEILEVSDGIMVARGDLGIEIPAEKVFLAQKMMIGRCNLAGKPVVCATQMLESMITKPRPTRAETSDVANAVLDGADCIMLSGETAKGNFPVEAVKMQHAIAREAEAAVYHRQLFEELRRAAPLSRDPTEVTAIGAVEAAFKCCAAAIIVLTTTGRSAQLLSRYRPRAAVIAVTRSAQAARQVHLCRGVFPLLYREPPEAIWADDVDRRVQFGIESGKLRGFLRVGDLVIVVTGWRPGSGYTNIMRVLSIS
Type: biochemical
Experimental: • 1). A recombinant human PKR enzyme solution was formulated at a concentration of 60 ng/well (a 20 μL reaction system), and 5 μL of the solution was added into each well of a black transparent bottom 384-well plate. • 2). Compound solutions were formulated at different concentrations, with the final concentrations of 1000/300/100 nM (containing 1% DMSO). Each 5 μL of the compound solution was added into the plate in item 3.1 and mixed well. The plate was incubated at room temperature for 10 min. • 3). A reaction system was formulated according to the instructions of a kit (as shown in the table below), and 10 μL of the reaction system was added into each well of the 384-well plate, and mixed uniformly with the solution in item 3.2.
• 4). The 384-well plate was placed on a microplate reader to detect the fluorescence value at 540/590 nm, where the value was read every 2 minutes and the detection was conducted continuously for 1 hour. • 5). The Slope value within the detection time was calculated, and the 0.1% DMSO well was used as a control well to calculate a compound activation rate.
[formula] • 6). Fitting dose-effect curve
With the log value of the compound concentration as the X axis and the percentage activation rate as the Y axis, a dose-effect curve was fitted with the log(agonist) vs. response-variable slope of the analysis software GraphPad Prism 5, and the AC50 value of the activity of each compound against PKR was obtained.
`O=C(C(CO)C1CCCCC1)N1CC(=C2CN(S(=O)(=O)c3ccccn3)C2)C1` (stereo not drawn) [Compound 90, 2-cyclohexyl-3-hydroxy-1-(1′-(pyridin-2-ylsulfonyl)-1′,4′-dihydro-2H,2′H-[3,3′-diazetidinylidene]-1(4H)-yl)propan-1-one] showed an AC50 of 101 to 300 nM.
Compound `N#Cc1ccc(S(=O)(=O)N2CC(=C3CN(C(=O)[C@H](CO)c4ccccc4)C3)C2)nc1` [Compound 70, (S)-6-((1′-(3-hydroxy-2-phenylpropionyl)-1′,4′-dihydro-2H,2′H-[3,3′-diazetidinylidene]-1(4H)-yl)sulfonyl)nicotinonitrile] has an AC50 of 300 to 1000 nM.
With `O=C([C@H](CO)c1ccc(F)cc1)N1CC(=C2CN(S(=O)(=O)c3ccc4ncsc4c3)C2)C1` [Compound 25, (S)-1-(1′-(benzo[d]thiazol-6-ylsulfonyl)-1′,4′-dihydro-2H,2′H-[3,3′-diazetidinylidene]-1(4H)-yl)-2-(4-fluorophenyl)-3-hydroxypropan-1-one] the AC50 was < 100 nM.
Compound `O=C([C@H](CO)c1ccccc1)N1CC(=C2CN(S(=O)(=O)c3cccnc3)C2)C1` [Compound 68, (S)-3-hydroxy-2-phenyl-1-(1′-(pyridin-3-ylsulfonyl)-1′,4′-dihydro-2H,2′H-[3,3′-diazetidinylidene]-1(4H)-yl)propane-1-one] has an AC50 of 300 to 1000 nM.
With `O=C([C@H](CO)c1ccccc1)N1CC(=C2CN(S(=O)(=O)c3ccc4c(c3)NCCO4)C2)C1` [Compound 12, (S)-1-(1′-((3,4-dihydro-2H-benzo[b][1,4]oxazin-6-yl)sulfonyl)-1′,4′-dihydro-2H,2′H-[3,3′-diazetidinylidene]-1(4H)-yl)-3-hydroxy-2-phenylpropan-1-one] the AC50 was < 100 nM.
With `Cn1cnc2ccc(S(=O)(=O)N3CC(=C4CN(C(=O)[C@H](CO)c5ccccc5)C4)C3)cc21` [Compound 63, (S)-3-hydroxy-1-(1′-((1-methyl-1H-benzimidazol-6-yl)sulfonyl)-1′,4′-dihydro-2H,2′H-[3,3′-diazetidinylidene]-1(4H)-yl)-2-phenylpropan-1-one] the AC50 was 101 to 300 nM.
Compound `NC(C(=O)N1CC(=C2CN(S(=O)(=O)c3ccc(OC(F)F)cc3)C2)C1)c1cccc(C(F)(F)F)c1` (stereo not drawn) [Compound 23, 2-amino-1-(1′-((4-(difluoromethoxy)phenyl)sulfonyl)-1′,4′-dihydro-2H,2′H-[3,3′-diazetidinylidene]-1(4H)-yl)-2-(3-(trifluoromethyl)phenyl)ethan-1-one] has an AC50 of 300 to 1000 nM.
In the case of `CCOc1ccc(S(=O)(=O)N2CC(=C3CN(C(=O)[C@H](CO)c4ccccc4)C3)C2)nc1` [Compound 72, (S)-1-(1′-((5-ethoxypyridin-2-yl)sulfonyl)-1′,4′-dihydro-2H,2′H-[3,3′-diazetidinylidene]-1(4H)-yl)-3-hydroxy-2-phenylpropan-1-one], the AC50 is reported as < 100 nM.
For `O=C([C@H](CO)c1ccc(F)cc1F)N1CC(=C2CN(S(=O)(=O)c3ccccn3)C2)C1` [Compound 83, (S)-2-(2,4-difluorophenyl)-3-hydroxy-1-(1′-(pyridin-2-ylsulfonyl)-1′,4′-dihydro-2H,2′H-[3,3′-diazetidinylidene]-1(4H)-yl)propan-1-one], the AC50 was < 100 nM.
In the case of `NC(C(=O)N1CC(=C2CN(S(=O)(=O)c3ccc(OC(F)F)cc3)C2)C1)c1ccc(F)cc1` (stereo not drawn) [Compound 22, 2-amino-1-(1′-((4-(difluoromethoxy)phenyl)sulfonyl)-1′,4′-dihydro-2H,2′H-[3,3′-diazetidinylidene]-1(4H)-yl)-2-(4-fluorophenyl)ethan-1-one], the AC50 is reported as 300 to 1000 nM.
`CN(C)CC(C(=O)N1CC(=C2CN(S(=O)(=O)c3ccc4ncsc4c3)C2)C1)c1ccc(F)c(Cl)c1` (stereo not drawn) [Compound 42, 1-(1′-(benzo[d]thiazol-6-ylsulfonyl)-1′,4′-dihydro-2H,2′H-[3,3′-diazetidinylidene]-1(4H)-yl)-2-(3-chloro-4-fluorophenyl)-3-(dimethylamino)propan-1-one] was tested, and the AC50 was 300 to 1000 nM.
`O=C([C@H](CO)c1ccccc1)N1CC(=C2CN(S(=O)(=O)c3ccc4c(n3)OCCO4)C2)C1` [Compound 49, (S)-1-(1′-((2,3-dihydro-[1,4]dioxino[2,3-b]pyridin-6-yl)sulfonyl)-1′,4′-dihydro-2H,2′H-[3,3′-diazetidinylidene]-1(4H)-yl)-3-hydroxy-2-phenylpropan-1-one] was tested, and the AC50 was < 100 nM.
With `COc1ccc(C(CO)C(=O)N2CC(=C3CN(S(=O)(=O)c4ccc5ncsc5c4)C3)C2)cc1` (stereo not drawn) [Compound 44, 1-(1′-(benzo[d]thiazol-6-ylsulfonyl)-1′,4′-dihydro-2H,2′H-[3,3′-diazetidinylidene]-1(4H)-yl)-3-hydroxy-2-(4-methoxyphenyl)propan-1-one] the AC50 was < 100 nM.
With `CN1C(=O)COc2ccc(S(=O)(=O)N3CC(=C4CN(C(=O)[C@H](CO)c5ccccc5)C4)C3)cc21` [Compound 41, (S)-6-((1′-(3-hydroxy-2-phenylpropionyl)-1′,4′-dihydro-2H,2′H-[3,3′-diazetidinylidene]-1(4H)-yl)sulfonyl)-4-methyl-2H-benzo[b][1,4]oxazine-3(4H)-one] the AC50 was 300 to 1000 nM.
Work on `Cn1cc(-c2ccc(C(CO)C(=O)N3CC(=C4CN(S(=O)(=O)c5ccc6ncsc6c5)C4)C3)cc2)cn1` (stereo not drawn) [Compound 34, 1-(1′-(benzo[d]thiazol-6-ylsulfonyl)-1′,4′-dihydro-2H,2′H-[3,3′-diazetidinylidene]-1(4H)-yl)-3-hydroxy-2-(4-(1-methyl-1H-pyrazol-4-yl)phenyl)propan-1-one] yielded an AC50 of 300 to 1000 nM.
`O=C([C@@H](CO)c1ccc(F)cc1)N1CC(=C2CN(S(=O)(=O)c3ccccn3)C2)C1` [Compound 55, (R)-2-(4-fluorophenyl)-3-hydroxy-1-(1′-(pyridin-2-ylsulfonyl)-1′,4′-dihydro-2H,2′H-[3,3′-diazetidinylidene]-1(4H)-yl)propan-1-one] gave an AC50 of 300 to 1000 nM.
With `O=C([C@H](CO)c1ccc(F)c(Cl)c1)N1CC(=C2CN(S(=O)(=O)c3ccccn3)C2)C1` [Compound 77, (S)-2-(3-chloro-4-fluorophenyl)-3-hydroxy-1-(1′-(pyridin-2-ylsulfonyl)-1′,4′-dihydro-2H,2′H-[3,3′-diazetidinylidene]-1(4H)-yl)propan-1-one] the AC50 was < 100 nM.
`O=C(C(CO)c1ccc(C(F)F)cc1)N1CC(=C2CN(S(=O)(=O)c3ccccn3)C2)C1` (stereo not drawn) [Compound 71, 2-(4-(difluoromethyl)phenyl)-3-hydroxy-1-(1′-(pyridin-2-ylsulfonyl)-1′,4′-dihydro-2H,2′H-[3,3′-diazetidinylidene]-1(4H)-yl)propan-1-one] was tested, and the AC50 was < 100 nM.
`O=C(C(CO)c1ccc(F)cc1)N1CC(=C2CN(S(=O)(=O)c3ccc(OC(F)F)cc3)C2)C1` (stereo not drawn) [Compound 16, 1-(1′-((4-(difluoromethoxy)phenyl)sulfonyl)-1′,4′-dihydro-2H,2′H-[3,3′-diazetidinylidene]-1(4H)-yl)-2-(4-fluorophenyl)-3-hydroxypropan-1-one] was tested, and the AC50 was 101 to 300 nM.
Compound `CNCC(C(=O)N1CC(=C2CN(S(=O)(=O)c3ccc4ncsc4c3)C2)C1)c1ccc(F)c(Cl)c1` (stereo not drawn) [Compound 38, 1-(1′-(benzo[d]thiazol-6-ylsulfonyl)-1′,4′-dihydro-2H,2′H-[3,3′-diazetidinylidene]-1(4H)-yl)-2-(3-chloro-4-fluorophenyl)-3-(methylamino)propan-1-one] has an AC50 of 300 to 1000 nM.
For `CN1CCN(c2cccc(C(CO)C(=O)N3CC(=C4CN(S(=O)(=O)c5ccc6ncsc6c5)C4)C3)c2)CC1` (stereo not drawn) [Compound 33], the AC50 was 300 to 1000 nM.
For `[2H]C([2H])([2H])Oc1ccc(S(=O)(=O)N2CC(=C3CN(C(=O)[C@H](CO)c4ccccc4)C3)C2)nc1` [Compound 91, (S)-3-hydroxy-1-(1′-((5-(methoxy-d3)pyridin-2-yl)sulfonyl)-1′,4′-dihydro-2H,2′H-[3,3′-diazetidinylidene]-1(4H)-yl)-2-phenylpropan-1-one], the AC50 was < 100 nM.
`CNCC(C(=O)N1CC(=C2CN(S(=O)(=O)c3ccc4c(c3)OCCO4)C2)C1)c1cccc(OC)c1` (stereo not drawn) [Compound 15, 1-(1′-((2,3-dihydrobenzo[b][1,4]dioxin-6-yl)sulfonyl)-1′,4′-dihydro-2H,2′H-[3,3′-diazetidinylidene]-1(4H)-yl)-2-(3-methoxyphenyl)-3-(methylamino)propan-1-one] was tested, and the AC50 was 300 to 1000 nM.
Compound `CN1CCN(c2cccc(C(O)C(=O)N3CC(=C4CN(S(=O)(=O)c5ccc6ncsc6c5)C4)C3)c2)CC1` (stereo not drawn) [Compound 43, 1-(1′-(benzo[d]thiazol-6-ylsulfonyl)-1′,4′-dihydro-2H,2′H-[3,3′-diazetidinylidene]-1(4H)-yl)-2-hydroxy-2-(3-(4-methylpiperazin-1-yl)phenyl)ethan-1-one] has an AC50 of 300 to 1000 nM.
`O=C(C(CO)c1ccc(Cl)cc1)N1CC(=C2CN(S(=O)(=O)c3ccccn3)C2)C1` (stereo not drawn) [Compound 75, 2-(4-chlorophenyl)-3-hydroxy-1-(1′-(pyridin-2-ylsulfonyl)-1′,4′-dihydro-2H,2′H-[3,3′-diazetidinylidene]-1(4H)-yl)propan-1-one] gave an AC50 of 101 to 300 nM.
In the case of `O=C(C(O)c1ccc2c(c1)NCCO2)N1CC(=C2CN(S(=O)(=O)c3ccc(OC(F)F)cc3)C2)C1` (stereo not drawn) [Compound 13, 1-(1′-((4-(difluoromethoxy)phenyl)sulfonyl)-1′,4′-dihydro-2H,2′H-[3,3′-diazetidinylidene]-1(4H)-yl)-2-(3,4-dihydro-2H-benzo[b][1,4]oxazin-6-yl)-2-hydroxyethan-1-one], the AC50 is reported as < 100 nM.
Compound `O=C([C@H](CO)c1ccccc1)N1CC(=C2CN(S(=O)(=O)c3ccc(OC(F)F)cc3)C2)C1` [Compound 7, (S)-1-(1′-((4-(difluoromethoxy)phenyl)sulfonyl)-1′,4′-dihydro-2H,2′H-[3,3′-diazetidinylidene]-1(4H)-yl)-3-hydroxy-2-phenylpropan-1-one] has an AC50 of 101 to 300 nM.
